The first assay concerns HCT-8. Kind of assay: Cytotoxicity against human HCT8 cells after 96 hrs by sulforhodamine B assay. Format: functional, cell-based. A general note: Sulforhodamine B stains cellular protein and so reports cell mass.
On to `COC(=O)[C@@]1(C)CC[C@]2(C)CC[C@]3(C)C(=CC(=O)[C@@H]4[C@@]5(C)CC[C@H](O)C(C)(C)[C@@H]5CC[C@]43C)[C@@H]2C1`, for which the IC50 stood at 24.36 µmol.

For the compound `COC(=O)[C@@]1(C)CC[C@]2(C)CC[C@]3(C)C(=CC(=O)[C@@H]4[C@@]5(C)CC[C@H](OC(=O)CNCCCN)C(C)(C)[C@@H]5CC[C@]43C)[C@@H]2C1`, the IC50 was found to be 2.37 µmol.

With `COC(=O)[C@@]1(C)CC[C@]2(C)CC[C@]3(C)C(=CC(=O)[C@@H]4[C@@]5(C)CC[C@H](OC(=O)CNCCCCCN)C(C)(C)[C@@H]5CC[C@]43C)[C@@H]2C1`, the IC50 stood at 1.38 µmol.

Tested on in a further assay: not listed separately
Kind of assay: Cytotoxicity against human Lipo cells after 96 hrs by sulforhodamine B assay. It counts as functional, cell-based.
Compound `COC(=O)[C@@]1(C)CC[C@]2(C)CC[C@]3(C)C(=CC(=O)[C@@H]4[C@@]5(C)CC[C@H](O)C(C)(C)[C@@H]5CC[C@]43C)[C@@H]2C1` registered an IC50 of 20.47 µmol.

For `COC(=O)[C@@]1(C)CC[C@]2(C)CC[C@]3(C)C(=CC(=O)[C@@H]4[C@@]5(C)CC[C@H](OC(=O)CNCCCN)C(C)(C)[C@@H]5CC[C@]43C)[C@@H]2C1`, the IC50 worked out at 3.89 µmol.

`COC(=O)[C@@]1(C)CC[C@]2(C)CC[C@]3(C)C(=CC(=O)[C@@H]4[C@@]5(C)CC[C@H](OC(=O)CNCCCCCN)C(C)(C)[C@@H]5CC[C@]43C)[C@@H]2C1` came in with an IC50 of 1.93 µmol.

Tested on in a further assay: not listed separately
Kind of assay: Cytotoxicity against human 518A2 cells after 96 hrs by sulforhodamine B assay. It counts as functional, cell-based.
Regarding `COC(=O)[C@@]1(C)CC[C@]2(C)CC[C@]3(C)C(=CC(=O)[C@@H]4[C@@]5(C)CC[C@H](O)C(C)(C)[C@@H]5CC[C@]43C)[C@@H]2C1`, the IC50 came out at 27.54 µmol.

For the compound `COC(=O)[C@@]1(C)CC[C@]2(C)CC[C@]3(C)C(=CC(=O)[C@@H]4[C@@]5(C)CC[C@H](OC(=O)CNCCCN)C(C)(C)[C@@H]5CC[C@]43C)[C@@H]2C1`, the IC50 worked out at 3.79 µmol.

Take `COC(=O)[C@@]1(C)CC[C@]2(C)CC[C@]3(C)C(=CC(=O)[C@@H]4[C@@]5(C)CC[C@H](OC(=O)CNCCCCCN)C(C)(C)[C@@H]5CC[C@]43C)[C@@H]2C1`: the IC50 was 2.02 µmol.

The next assay deals with SW-1736. Put plainly: Cytotoxicity against human SW1736 cells after 96 hrs by sulforhodamine B assay. It counts as functional, cell-based.
As for `COC(=O)[C@@]1(C)CC[C@]2(C)CC[C@]3(C)C(=CC(=O)[C@@H]4[C@@]5(C)CC[C@H](O)C(C)(C)[C@@H]5CC[C@]43C)[C@@H]2C1`, the IC50 was 34.87 µmol.

For the compound `COC(=O)[C@@]1(C)CC[C@]2(C)CC[C@]3(C)C(=CC(=O)[C@@H]4[C@@]5(C)CC[C@H](OC(=O)CNCCCN)C(C)(C)[C@@H]5CC[C@]43C)[C@@H]2C1`, the IC50 was 6.05 µmol.

The compound `COC(=O)[C@@]1(C)CC[C@]2(C)CC[C@]3(C)C(=CC(=O)[C@@H]4[C@@]5(C)CC[C@H](OC(=O)CNCCCCCN)C(C)(C)[C@@H]5CC[C@]43C)[C@@H]2C1` had an IC50 of 2.69 µmol.

For another assay, the system named is A549. Put plainly: Cytotoxicity against human A549 cells after 96 hrs by sulforhodamine B assay. Format: functional, cell-based.
On to `COC(=O)[C@@]1(C)CC[C@]2(C)CC[C@]3(C)C(=CC(=O)[C@@H]4[C@@]5(C)CC[C@H](O)C(C)(C)[C@@H]5CC[C@]43C)[C@@H]2C1`, for which the IC50 worked out at 23.5 µmol.

With `COC(=O)[C@@]1(C)CC[C@]2(C)CC[C@]3(C)C(=CC(=O)[C@@H]4[C@@]5(C)CC[C@H](OC(=O)CNCCCN)C(C)(C)[C@@H]5CC[C@]43C)[C@@H]2C1`, the IC50 was 5.15 µmol.

For `COC(=O)[C@@]1(C)CC[C@]2(C)CC[C@]3(C)C(=CC(=O)[C@@H]4[C@@]5(C)CC[C@H](OC(=O)CNCCCCCN)C(C)(C)[C@@H]5CC[C@]43C)[C@@H]2C1`, the IC50 worked out at 2.52 µmol.

A further assay deals with MCF7. Put plainly: Cytotoxicity against human MCF7 cells after 96 hrs by sulforhodamine B assay. Format: functional, cell-based.
`COC(=O)[C@@]1(C)CC[C@]2(C)CC[C@]3(C)C(=CC(=O)[C@@H]4[C@@]5(C)CC[C@H](O)C(C)(C)[C@@H]5CC[C@]43C)[C@@H]2C1` gave an IC50 of 22.14 µmol.

Turning to `COC(=O)[C@@]1(C)CC[C@]2(C)CC[C@]3(C)C(=CC(=O)[C@@H]4[C@@]5(C)CC[C@H](OC(=O)CNCCCN)C(C)(C)[C@@H]5CC[C@]43C)[C@@H]2C1`, the IC50 turned out to be 3.55 µmol.

`COC(=O)[C@@]1(C)CC[C@]2(C)CC[C@]3(C)C(=CC(=O)[C@@H]4[C@@]5(C)CC[C@H](OC(=O)CNCCCCCN)C(C)(C)[C@@H]5CC[C@]43C)[C@@H]2C1` registered an IC50 of 1.79 µmol.

Another assay concerns SW480. Kind of assay: Cytotoxicity against human SW480 cells after 96 hrs by sulforhodamine B assay. It counts as functional, cell-based.
As for `COC(=O)[C@@]1(C)CC[C@]2(C)CC[C@]3(C)C(=CC(=O)[C@@H]4[C@@]5(C)CC[C@H](O)C(C)(C)[C@@H]5CC[C@]43C)[C@@H]2C1`, the IC50 is 16.08 µmol.

Turning to `COC(=O)[C@@]1(C)CC[C@]2(C)CC[C@]3(C)C(=CC(=O)[C@@H]4[C@@]5(C)CC[C@H](OC(=O)CNCCCN)C(C)(C)[C@@H]5CC[C@]43C)[C@@H]2C1`, the IC50 is 3.68 µmol.

For `COC(=O)[C@@]1(C)CC[C@]2(C)CC[C@]3(C)C(=CC(=O)[C@@H]4[C@@]5(C)CC[C@H](OC(=O)CNCCCCCN)C(C)(C)[C@@H]5CC[C@]43C)[C@@H]2C1`, the IC50 stood at 1.91 µmol.

The subject of a further assay is HT-29. Kind of assay: Cytotoxicity against human HT-29 cells after 96 hrs by sulforhodamine B assay. It counts as functional, cell-based.
In turn, `COC(=O)[C@@]1(C)CC[C@]2(C)CC[C@]3(C)C(=CC(=O)[C@@H]4[C@@]5(C)CC[C@H](O)C(C)(C)[C@@H]5CC[C@]43C)[C@@H]2C1` returned an IC50 of 27.54 µmol.

The compound `COC(=O)[C@@]1(C)CC[C@]2(C)CC[C@]3(C)C(=CC(=O)[C@@H]4[C@@]5(C)CC[C@H](OC(=O)CNCCCN)C(C)(C)[C@@H]5CC[C@]43C)[C@@H]2C1` had an IC50 of 2.9 µmol.

In turn, `COC(=O)[C@@]1(C)CC[C@]2(C)CC[C@]3(C)C(=CC(=O)[C@@H]4[C@@]5(C)CC[C@H](OC(=O)CNCCCCCN)C(C)(C)[C@@H]5CC[C@]43C)[C@@H]2C1` registered an IC50 of 1.28 µmol.

For a further assay, the system named is 8505C. Kind of assay: Cytotoxicity against human 8505C cells after 96 hrs by sulforhodamine B assay. Format: functional, cell-based.
In turn, `COC(=O)[C@@]1(C)CC[C@]2(C)CC[C@]3(C)C(=CC(=O)[C@@H]4[C@@]5(C)CC[C@H](O)C(C)(C)[C@@H]5CC[C@]43C)[C@@H]2C1` returned an IC50 of 26.07 µmol.

For the compound `COC(=O)[C@@]1(C)CC[C@]2(C)CC[C@]3(C)C(=CC(=O)[C@@H]4[C@@]5(C)CC[C@H](OC(=O)CNCCCN)C(C)(C)[C@@H]5CC[C@]43C)[C@@H]2C1`, the IC50 worked out at 3.37 µmol.

For `COC(=O)[C@@]1(C)CC[C@]2(C)CC[C@]3(C)C(=CC(=O)[C@@H]4[C@@]5(C)CC[C@H](OC(=O)CNCCCCCN)C(C)(C)[C@@H]5CC[C@]43C)[C@@H]2C1`, the IC50 was 1.78 µmol.

Tested on in a further assay: not listed separately
Kind of assay: Cytotoxicity against human A253 cells after 96 hrs by sulforhodamine B assay. It counts as functional, cell-based.
`COC(=O)[C@@]1(C)CC[C@]2(C)CC[C@]3(C)C(=CC(=O)[C@@H]4[C@@]5(C)CC[C@H](O)C(C)(C)[C@@H]5CC[C@]43C)[C@@H]2C1`: the IC50 stood at 19.42 µmol.

`COC(=O)[C@@]1(C)CC[C@]2(C)CC[C@]3(C)C(=CC(=O)[C@@H]4[C@@]5(C)CC[C@H](OC(=O)CNCCCN)C(C)(C)[C@@H]5CC[C@]43C)[C@@H]2C1` gave an IC50 of 3.64 µmol.

`COC(=O)[C@@]1(C)CC[C@]2(C)CC[C@]3(C)C(=CC(=O)[C@@H]4[C@@]5(C)CC[C@H](OC(=O)CNCCCCCN)C(C)(C)[C@@H]5CC[C@]43C)[C@@H]2C1` returned an IC50 of 2.27 µmol.

Another assay relates to FaDu. Kind of assay: Cytotoxicity against human FADU cells after 96 hrs by sulforhodamine B assay. Format: functional, cell-based.
The compound `COC(=O)[C@@]1(C)CC[C@]2(C)CC[C@]3(C)C(=CC(=O)[C@@H]4[C@@]5(C)CC[C@H](O)C(C)(C)[C@@H]5CC[C@]43C)[C@@H]2C1` came in with an IC50 of 23.41 µmol.

The compound `COC(=O)[C@@]1(C)CC[C@]2(C)CC[C@]3(C)C(=CC(=O)[C@@H]4[C@@]5(C)CC[C@H](OC(=O)CNCCCN)C(C)(C)[C@@H]5CC[C@]43C)[C@@H]2C1` had an IC50 of 5.57 µmol.

`COC(=O)[C@@]1(C)CC[C@]2(C)CC[C@]3(C)C(=CC(=O)[C@@H]4[C@@]5(C)CC[C@H](OC(=O)CNCCCCCN)C(C)(C)[C@@H]5CC[C@]43C)[C@@H]2C1` came in with an IC50 of 3.3 µmol.

Another assay relates to DLD-1. Put plainly: Cytotoxicity against human DLD1 cells after 96 hrs by sulforhodamine B assay. Format: functional, cell-based.
Compound `COC(=O)[C@@]1(C)CC[C@]2(C)CC[C@]3(C)C(=CC(=O)[C@@H]4[C@@]5(C)CC[C@H](O)C(C)(C)[C@@H]5CC[C@]43C)[C@@H]2C1` had an IC50 of 26.12 µmol.

`COC(=O)[C@@]1(C)CC[C@]2(C)CC[C@]3(C)C(=CC(=O)[C@@H]4[C@@]5(C)CC[C@H](OC(=O)CNCCCN)C(C)(C)[C@@H]5CC[C@]43C)[C@@H]2C1` displayed an IC50 of 4.39 µmol.

As for `COC(=O)[C@@]1(C)CC[C@]2(C)CC[C@]3(C)C(=CC(=O)[C@@H]4[C@@]5(C)CC[C@H](OC(=O)CNCCCCCN)C(C)(C)[C@@H]5CC[C@]43C)[C@@H]2C1`, the IC50 came out at 2.4 µmol.

A further assay concerns HCT-116. Kind of assay: Cytotoxicity against human HCT116 cells after 96 hrs by sulforhodamine B assay. It counts as functional, cell-based.
`COC(=O)[C@@]1(C)CC[C@]2(C)CC[C@]3(C)C(=CC(=O)[C@@H]4[C@@]5(C)CC[C@H](O)C(C)(C)[C@@H]5CC[C@]43C)[C@@H]2C1`: the IC50 was determined as 22.1 µmol.

Regarding `COC(=O)[C@@]1(C)CC[C@]2(C)CC[C@]3(C)C(=CC(=O)[C@@H]4[C@@]5(C)CC[C@H](OC(=O)CNCCCN)C(C)(C)[C@@H]5CC[C@]43C)[C@@H]2C1`, the IC50 was 4.3 µmol.

`COC(=O)[C@@]1(C)CC[C@]2(C)CC[C@]3(C)C(=CC(=O)[C@@H]4[C@@]5(C)CC[C@H](OC(=O)CNCCCCCN)C(C)(C)[C@@H]5CC[C@]43C)[C@@H]2C1`: the IC50 was 2.19 µmol.

In the next assay the test system is A2780. Kind of assay: Cytotoxicity against human A2780 cells after 96 hrs by sulforhodamine B assay. It counts as functional, cell-based.
`COC(=O)[C@@]1(C)CC[C@]2(C)CC[C@]3(C)C(=CC(=O)[C@@H]4[C@@]5(C)CC[C@H](O)C(C)(C)[C@@H]5CC[C@]43C)[C@@H]2C1` had an IC50 of 25.54 µmol.

The compound `COC(=O)[C@@]1(C)CC[C@]2(C)CC[C@]3(C)C(=CC(=O)[C@@H]4[C@@]5(C)CC[C@H](OC(=O)CNCCCN)C(C)(C)[C@@H]5CC[C@]43C)[C@@H]2C1` registered an IC50 of 4.39 µmol.

Take `COC(=O)[C@@]1(C)CC[C@]2(C)CC[C@]3(C)C(=CC(=O)[C@@H]4[C@@]5(C)CC[C@H](OC(=O)CNCCCCCN)C(C)(C)[C@@H]5CC[C@]43C)[C@@H]2C1`: the IC50 turned out to be 2 µmol.
